Laboratory results taken from PubChem BioAssay (NCI).
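Five concentrations, 48 hours, 96-well plates. GI50 is the concentration that inhibits growth by half. TGI is the concentration that stops growth completely.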

What was measured:
Assay in all cases: growth of human tumour cells (NCI), 48 h
[1] = test system: DMS 114 small cell lung
[2] = test system: HOP-18 NSCLC
[3] = test system: LXFL 529 NSCLC
[4] = test system: M14 melanoma
[5] = test system: SNB-78 CNS
[6] = test system: DU-145 prostate
[7] = test system: HS 578T breast
[8] = test system: NCI/ADR-RES ovarian
[9] = test system: PC-3 prostate
[10] = test system: T-47D breast

| SMILES | TGI [1] [µM] | TGI [2] [µM] | TGI [3] [µM] | TGI [4] [µM] | TGI [5] [µM] | also measured |
| --- | --- | --- | --- | --- | --- | --- |
| Cc1cccc(C)c1NC(=O)C(=O)C1C(=O)NC(=O)NC1=O | > 100 | > 100 | > 100 | > 100 | > 100 | – |
| CN1CCN(C)C12C=c1ccccc1=CC21CC1 | 36.3 | > 100 | 31.2 | 34.8 | > 100 | TGI [6]: > 100 µM; TGI [7]: > 31.6 µM; TGI [8]: > 100 µM; TGI [9]: > 96.3 µM; TGI [10]: > 86.2 µM |
| Brc1cccc(C=NC23CC4CC(CC(C4)C2)C3)c1 | > 100 | > 100 | > 100 | > 100 | > 100 | – |
| CC[CH2][Sn]([CH2]CC)([O]C(=O)c1cccnc1SC)[O][Sn]([CH2]CC)([CH2]CC)[O]C(=O)c1cccnc1SC | 0.222 | 1.81 | 0.155 | 1.38 | 1.14 | GI50 [1]: 0.0726 µM; GI50 [6]: 2.37 µM; TGI [6]: 7.11 µM; GI50 [2]: 0.689 µM; GI50 [7]: 1.5 µM; TGI [7]: 6.36 µM; GI50 [3]: 0.0198 µM; GI50 [4]: 0.513 µM; GI50 [8]: 1.49 µM; TGI [8]: 3.24 µM; GI50 [9]: 2.3 µM; TGI [9]: 6.48 µM; GI50 [5]: 0.138 µM; GI50 [10]: 0.287 µM; TGI [10]: 1.52 µM |
| NC(CCC(=O)NC(CSSCCCCS(=O)O)C(=O)NCC(=O)O)C(=O)O (centres undefined) | > 100 | > 100 | > 100 | > 100 | > 100 | – |
| O=c1/c(=C/c2ccco2)sc2nc3ccccc3n12 | > 100 | > 100 | > 100 | > 100 | > 100 | GI50 [1]: > 100 µM; GI50 [3]: > 100 µM; GI50 [4]: > 100 µM; GI50 [5]: > 100 µM |
| CC(C)C(=O)NC(=S)Nc1ccc([N+](=O)[O-])cc1C#N | > 100 | > 100 | > 100 | > 100 | > 100 | – |
| CCOC(=O)[C]1([Bi]([CH3])[CH3])N=NC(C(=O)OC)=C1C(=O)OC (centres undefined) | 40 | 31 | 35.2 | > 10 | > 100 | GI50 [1]: 20 µM; GI50 [2]: 17.3 µM; GI50 [3]: 14.5 µM; GI50 [4]: > 10 µM; GI50 [5]: 27.4 µM |
| O=C1CCC(=O)N2CCCCN12 | > 100 | > 100 | > 100 | > 100 | > 100 | – |
| O=C(/C=C/c1c(O)ccc2ccccc12)c1cccc(O)c1 | > 77.3 | > 86.8 | > 100 | > 100 | > 100 | – |
| O=c1c2cc([N+](=O)[O-])ccc2sc2ccsc12 | > 100 | > 100 | > 100 | > 100 | > 100 | – |
| NC(=O)C(=O)N/N=C(\CC1(O)C(=O)Nc2ccccc21)c1ccc2ccccc2c1 (centres undefined) | 55.4 | > 100 | > 100 | > 100 | > 100 | – |
| CCCCN=C(NC#N)NCCCC | > 100 | > 100 | > 100 | > 100 | > 100 | – |
| O=C(O)CNS(=O)(=O)c1ccc(NCc2ccccc2)cc1 | > 100 | > 100 | > 100 | > 100 | > 100 | – |
| COC(=O)C1Cc2c(n(Cc3ccccc3)c3ccccc23)C(CCC(=O)O)N1C(C)C (centres undefined) | > 100 | > 100 | > 100 | > 100 | > 100 | – |
